ChEMBL document CHEMBL3044978, “Efficacy of acibenzolar-S-methyl and two strobilurins, azoxystrobin and trifloxystrobin, for the control of corky root of tomato and verticillium wilt of eggplant” (Crop Prot, 2006)
Active and inactive are the calls of the source. The rule behind the calls is not given here.

How the values were obtained:
Verticillium dahliae [1] = assay: (§1) Fungicidal activity against Verticillium dahliae infected eggplant assessed as reduction in severity of external symptoms at 100 to 250 mg/l after 80 to 120 days under field condition relative to untreated control; assay type: functional; set-up: scale not given: the % may be the effect or the level left
[2] = tested on: Pseudopyrenochaeta lycopersici; assay: Fungicidal activity against Pyrenochaeta lycopersici infected tomato plant assessed as diseased root surface at 100 to 250 mg/l after 100 days under field condition relative to untreated control; assay type: functional
Verticillium dahliae [3] = assay: Fungicidal activity against Verticillium dahliae infected eggplant assessed as vascular discoloration at 100 to 250 mg/l after 120 days under field condition relative to untreated control; assay type: functional, organism-based
[4] = tested on: Pseudopyrenochaeta lycopersici; assay: Fungicidal activity against Pyrenochaeta lycopersici infected tomato plant assessed as diseased root surface at 87.5 to 100 mg/l after 120 days under greenhouse condition relative to untreated control; assay type: functional
Solanum melongena [5] = assay: Phytotoxicity in Solanum melongena (eggplant) assessed as leaf chlorosis at 100 to 250 mg/l after 80 to 120 days under field condition; assay type: organism-based; settings: in vivo
Solanum melongena [6] = assay: Phytotoxicity in Solanum melongena (eggplant) assessed as plant stunting at 87.5 to 100 mg/l after 80 days under greenhouse condition; assay type: organism-based; settings: in vivo, 1920 h
Solanum lycopersicum [7] = assay: Phytotoxicity in Solanum lycopersicum (tomato) plant assessed as leaf chlorosis at 100 to 250 mg/l after 120 days under field condition; assay type: organism-based; settings: in vivo, 2880 h
Solanum lycopersicum [8] = assay: Phytotoxicity in Solanum lycopersicum (tomato) plant assessed as plant stunting at 87.5 to 100 mg/l after 120 days under greenhouse condition; assay type: organism-based; settings: in vivo, 2880 h
Verticillium dahliae [9] = assay: Fungicidal activity against Verticillium dahliae infected eggplant assessed as wilted leaves at 87.5 to 100 mg/l after 80 days under greenhouse condition relative to untreated control; assay type: functional
Solanum melongena [10] = assay: Phytotoxicity in Solanum melongena (eggplant) assessed as plant stunting at 12.5 to 87.5 mg/l after 80 days under greenhouse condition; assay type: organism-based; settings: in vivo, 1920 h
Solanum lycopersicum [11] = assay: Phytotoxicity in Solanum lycopersicum (tomato) plant assessed as plant stunting at 12.5 to 87.5 mg/l after 120 days under greenhouse condition; assay type: organism-based; settings: in vivo, 2880 h
Solanum lycopersicum [12] = assay: Induction of systemic acquired resistance activity in Solanum lycopersicum (tomato) plant infected with Pyrenochaeta lycopersici assessed as diseased root surface at 12.5 mg/l after 100 days under field condition relative to untreated control; assay type: functional
Solanum melongena [13] = assay: Induction of systemic acquired resistance activity in Solanum melongena (eggplant) infected with Verticillium dahliae assessed as vascular discoloration at 12.5 mg/l after 120 days under field condition relative to untreated control; assay type: functional, organism-based
Solanum lycopersicum [14] = assay: Phytotoxicity in Solanum lycopersicum (tomato) plant assessed as leaf chlorosis at 12.5 to 87.5 mg/l after 120 days under greenhouse condition; assay type: organism-based; settings: in vivo, 2880 h
Solanum melongena [15] = assay: Phytotoxicity in Solanum melongena (eggplant) assessed as leaf chlorosis at 12.5 mg/l after 80 to 120 days under field condition; assay type: organism-based; settings: in vivo
Solanum lycopersicum [16] = assay: Phytotoxicity in Solanum lycopersicum (tomato) plant assessed as leaf chlorosis at 12.5 mg/l after 120 days under field condition; assay type: organism-based; settings: in vivo, 2880 h
Solanum melongena [17] = assay: Induction of systemic acquired resistance activity in Solanum melongena (eggplant) infected with Verticillium dahliae assessed as reduction in severity of external symptoms at 12.5 mg/l after 80 to 120 days under field condition relative to untreated control; assay type: functional; set-up: scale not given: the % may be the effect or the level left
Solanum melongena [18] = assay: Phytotoxicity in Solanum melongena (eggplant) assessed as leaf chlorosis at 12.5 to 87.5 mg/l after 80 days under greenhouse condition; assay type: organism-based; settings: in vivo, 1920 h
Solanum melongena [19] = assay: Phytotoxicity in Solanum melongena (eggplant) assessed as plant stunting after 80 days under greenhouse condition; assay type: organism-based; settings: in vivo, 1920 h
Verticillium dahliae [20] = assay: Fungicidal activity against Verticillium dahliae infected eggplant assessed as vascular discoloration applied as one soil drench and two foliar sprays post transplanting after 120 days under field condition relative to untreated control; assay type: functional, organism-based
Verticillium dahliae [21] = assay: as §1, with “applied as dipping of seedling roots into fungicide water suspension before transplanting and one soil drench post transplanting” for “at 100 to 250 mg/l”; assay type: functional; set-up: scale not given: the % may be the effect or the level left
Verticillium dahliae [22] = assay: (§2) Fungicidal activity against Verticillium dahliae infected eggplant assessed as vascular discoloration applied as dipping of seedling roots into fungicide water suspension before transplanting and two soil drenches post transplanting after 120 days under field condition relative to untreated control; assay type: functional, organism-based
Verticillium dahliae [23] = assay: as §2, with “reduction in severity of external symptoms” for “vascular discoloration”, “after 80 to” for “after”; assay type: functional; set-up: scale not given: the % may be the effect or the level left
[24] = tested on: Pseudopyrenochaeta lycopersici; assay: (§3) Fungicidal activity against Pyrenochaeta lycopersici infected tomato plant assessed as diseased root surface applied as dipping of seedling roots into fungicide water suspension before transplanting and one soil drench post transplanting after 100 days under field condition relative to untreated control; assay type: functional
Verticillium dahliae [25] = assay: Fungicidal activity against Verticillium dahliae infected eggplant assessed as reduction in severity of external symptoms applied as one soil drench and two foliar sprays post transplanting after 80 to 120 days under field condition relative to untreated control; assay type: functional; set-up: scale not given: the % may be the effect or the level left
Solanum lycopersicum [26] = assay: Phytotoxicity in Solanum lycopersicum (tomato) plant assessed as plant stunting after 120 days under greenhouse condition; assay type: organism-based; settings: in vivo, 2880 h
[27] = tested on: Pseudopyrenochaeta lycopersici; assay: Fungicidal activity against Pyrenochaeta lycopersici infected tomato plant assessed as diseased root surface after 120 days under greenhouse condition relative to untreated control; assay type: functional
[28] = tested on: Pseudopyrenochaeta lycopersici; assay: as §3, with “two” for “one”, “drenches” for “drench”; assay type: functional
Verticillium dahliae [29] = assay: Fungicidal activity against Verticillium dahliae infected eggplant assessed as vascular discoloration applied as dipping of seedling roots into fungicide water suspension before transplanting and one soil drench post transplanting after 120 days under field condition relative to untreated control; assay type: functional, organism-based
[30] = tested on: Pseudopyrenochaeta lycopersici; assay: Fungicidal activity against Pyrenochaeta lycopersici infected tomato plant assessed as diseased root surface applied as one soil drench and two foliar sprays post transplanting after 100 days under field condition relative to untreated control; assay type: functional
Solanum lycopersicum [31] = assay: Phytotoxicity in Solanum lycopersicum (tomato) plant assessed as plant stunting during early growth stage after 120 days under field condition; assay type: organism-based; settings: in vivo, 2880 h
Solanum melongena [32] = assay: Phytotoxicity in Solanum melongena (eggplant) assessed as plant stunting during early growth stage after 80 to 120 days under field condition; assay type: organism-based; settings: in vivo
Verticillium dahliae [33] = assay: Fungicidal activity against Verticillium dahliae infected eggplant assessed as wilted leaves after 80 days under greenhouse condition relative to untreated control; assay type: functional

Structure (SMILES): CO/N=C(\C(=O)OC)c1ccccc1CO/N=C(\C)c1cccc(C(F)(F)F)c1
- Activity (Verticillium dahliae [1]): 17.6%
- Activity [2]: 48.7%
- Activity (Verticillium dahliae [3]): inactive
- Activity [4]: 93.3%
- Activity (Solanum melongena [5]): Non-toxic
- Activity (Solanum melongena [6]): Non-toxic
- Activity (Solanum lycopersicum [7]): Non-toxic
- Activity (Solanum lycopersicum [8]): Non-toxic
- Activity (Verticillium dahliae [9]): 78.1%

Structure (SMILES): CSC(=O)c1cccc2nnsc12 [ACIBENZOLAR-S-METHYL]
- Activity (Solanum melongena [10]): Toxic
- Activity (Solanum lycopersicum [11]): Toxic
- Activity (Solanum lycopersicum [12]): 62.7%
- Activity (Solanum melongena [13]): inactive
- Activity (Solanum lycopersicum [14]): Toxic
- Activity (Solanum melongena [15]): Non-toxic
- Activity (Solanum lycopersicum [16]): Non-toxic
- Activity (Solanum melongena [17]): 6.9%
- Activity (Solanum melongena [18]): Toxic

Structure (SMILES): CO/C=C(/C(=O)OC)c1ccccc1Oc1cc(Oc2ccccc2C#N)ncn1 [AZOXYSTROBIN]
- Activity (Solanum melongena [19]): Toxic
- Activity (Verticillium dahliae [20]): inactive
- Activity (Verticillium dahliae [21]): 29.4%
- Activity (Verticillium dahliae [22]): inactive
- Activity (Verticillium dahliae [23]): 24.6%
- Activity [24]: 73.5%
- Activity (Verticillium dahliae [25]): 24.6%
- Activity (Solanum lycopersicum [26]): Toxic
- Activity [27]: 98.3%
- Activity [28]: 83.7%
- Activity (Verticillium dahliae [29]): inactive
- Activity [30]: 81.7%
- Activity (Solanum lycopersicum [31]): Toxic
- Activity (Solanum melongena [32]): Toxic
- Activity (Verticillium dahliae [33]): 95.1%
